This test addresses T1, CDK2/CycE (Homo sapiens, UniProt P24941).
T1 construct: purchased ProQinase GmbH (Freiburg, Germany); host or cells: insect cells (Sf9)
The test is described as follows: CDK2/CycE kinase assay (TR-FRET, 2 mM ATP). To be noted: 2 mM ATP (high ATP); median; read-out: CDK2/CyclinE, 2 mM ATP (high ATP), IC50 (median). In kind it is biochemical. From the text: CDK2/CycE-inhibitory activity of compounds of the present invention was quantified employing the CDK2/CycE TR-FRET assay as described in the following paragraphs.
Recombinant fusion proteins of GST and human CDK2 and of GST and human CycE, expressed in insect cells (Sf9) and purified by Glutathion-Sepharose affinity chromatography, were purchase from ProQinase GmbH (Freiburg, Germany). As substrate for the kinase reaction biotinylated peptide biotin-Ttds-YISPLKSPYKISEG (C-terminus in amid form) was used which can be purchased e.g. form the company JERINI peptide technologies (Berlin, Germany).
For the assay 50 nanoL of a 100 fold concentrated solution of the test compound in DMSO was pipetted into a black low volume 384 well microtiter plate or a black 1536 well microtiter plate (both Greiner Bio-One, Frickenhausen, Germany), 2 microL of a solution of CDK2/CycE in aqueous assay buffer [50 millimol/L Tris/HCl pH 8.0, 10 millimol/L MgCl2, 1.0 millimol/L dithiothreitol, 0.1 millimol/L sodium ortho-vanadate, 0.01% (v/v) Nonidet-P40 (Sigma)] were added and the mixture was incubated for 15 min at 22° C. to allow pre-binding of the test compounds to the enzyme before the start of the kinase reaction. Then the kinase reaction was started by the addition of 3 microL of a solution of adenosine-tri-phosphate (ATP, 3.33 millimol/L=>final conc. in the 5 microL assay volume is 2 millimol/L) and substrate (1.25 micromol/L=>final conc. in the 5 microL assay volume is 0.75 micromol/L) in assay buffer and the resulting mixture was incubated for a reaction time of 25 min at 22° C. The concentration of CDK2/CycE was adjusted depending of the activity of the enzyme lot and was chosen appropriate to have the assay in the linear range, typical concentrations were in the range of 10 ng/ml. The reaction was stopped by the addition of 3 microL of a solution of TR-FRET detection reagents (0.333 micromol/L streptavidine-XL665 [Cisbio Bioassays, Codolet, France] and 1.67 nanomol/L anti-RB(pSer807/pSer8l 1)-antibody from BD Pharmingen [#558389] and 2 nanomol/L LANCE EU-W1024 labeled anti-mouse IgG antibody [Perkin-Elmer, product no. AD0077, as an alternative a Terbium-cryptate-labeled anti-mouse IgG antibody from Cisbio Bioassays can be used]) in an aqueous EDTA-solution (167 millimol/L EDTA, 0.2% (w/v) bovine serum albumin in 100 millimol/L HEPES pH 7.5).
The resulting mixture was incubated 1 h at 22° C. to allow the formation of complex between the phosphorylated biotinylated peptide and the detection reagents. Subsequently the amount of phosphorylated substrate was evaluated by measurement of the resonance energy transfer from the Eu-chelate to the streptavidine-XL. Therefore, the fluorescence emissions at 620 nm and 665 nm after excitation at 350 nm was measured in a TR-FRET reader, e.g. a Pherastar (BMG Labtechnologies, Offenburg, Germany) or a Viewlux (Perkin-Elmer). The ratio of the emissions at 665 nm and at […] was taken as the measure for the amount of phosphorylated substrate. The data were normalised (enzyme reaction without inhibitor=0% inhibition, all other assay components but no enzyme=100% inhibition).
(In general: In TR-FRET formats the signal depends on donor and acceptor labels being close together.)

Bounds are passed on as bounds.

For `Clc1ccccc1-c1cnc(CNc2nc(N3CCOCC3)nc3c(Br)cnn23)[nH]1` [Example 96, 8-bromo-N-{[5-(2-chlorophenyl)-1H-imidazol-2-yl]methyl}-2-(morpholin-4-yl)pyrazolo[1,5-a][1,3,5]triazin-4-amine], the IC50 stood at 1.78 µM.

As to `Fc1cc(-c2nnc(CNc3nc(N4CCOCC4)nc4c(Br)cnn34)[nH]2)cc(F)c1F` [Example 100, 8-bromo-2-(morpholin-4-yl)-N-{[5-(3,4,5-trifluorophenyl)-4H-1,2,4-triazol-3-yl]methyl}pyrazolo[1,5-a][1,3,5]triazin-4-amine], the IC50 was determined as 1.83 µM.

Turning to `C[C@@H]1CN(c2nc(NCc3nc4cc(F)ccc4[nH]3)n3ncc(Br)c3n2)C[C@H](C)O1` [Example 110, 8-bromo-2-[(2R,6S)-2,6-dimethylmorpholin-4-yl]-N-[(5-fluoro-1H-benzimidazol-2-yl)methyl]pyrazolo[1,5-a][1,3,5]triazin-4-amine], the IC50 was 8.21 µM.

As to `Brc1cnn2c(NCc3nc4ccccc4[nH]3)nc(N3CCOCC3C3CC3)nc12` (stereo not shown) [Example 117, N-(1H-benzimidazol-2-ylmethyl)-8-bromo-2-(3-cyclopropylmorpholin-4-yl)pyrazolo[1,5-a][1,3,5]triazin-4-amine], the IC50 was found to be 4.66 µM.

In the case of `CN1CCN(c2nc(NCc3nnc(-c4ccccc4)[nH]3)n3ncc(Br)c3n2)CC1=O` [Example 121, 4-(8-bromo-4-{[(5-phenyl-4H-1,2,4-triazol-3-yl)methyl]amino}pyrazolo[1,5-a][1,3,5]triazin-2-yl)-1-methylpiperazin-2-one], the IC50 turned out to be 2.2 µM.

For the molecule `Brc1cnn2c(NCc3nnc(-c4ccccc4)[nH]3)nc(N3C[C@H]4C[C@@H]3CO4)nc12` [Example 118, 8-bromo-2-[(1R,4R)-2-oxa-5-azabicyclo[2.2.1]heptan-5-yl]-N-[(5-phenyl-4H-1,2,4-triazol-3-yl)methyl]pyrazolo[1,5-a][1,3,5]triazin-4-amine], the IC50 turned out to be 3.39 µM.

Turning to `C[C@H]1CN(c2nc(NCc3nnc(-c4ccccc4)[nH]3)n3ncc(Br)c3n2)CCN1C.O=CO` [Example 122, 8-bromo-2-[(3S)-3,4-dimethylpiperazin-1-yl]-N-[(5-phenyl-4H-1,2,4-triazol-3-yl)methyl]pyrazolo[1,5-a][1,3,5]triazin-4-amine formate], the IC50 turned out to be 6.72 µM.

Take `Fc1ccccc1-c1cnn2c(NCc3nc4ccccc4[nH]3)nc(N3CCOCC3)nc12` [Example 95, N-[(1H-benzimidazol-2-yl)methyl]-8-(2-fluorophenyl)-2-(morpholin-4-yl)pyrazolo[1,5-a][1,3,5]triazin-4-amine]: the IC50 was above 20 µM.

Regarding `NCCCc1cccc2[nH]c(CNc3nc(N4CCOCC4)nc4c(Br)cnn34)nc12.O=CO` [Example 114, formic acid-N-{[4-(3-aminopropyl)-1H-benzimidazol-2-yl]methyl}-8-bromo-2-(morpholin-4-yl)pyrazolo[1,5-a][1,3,5]triazin-4-amine (1/1)], the IC50 was determined as 5.44 µM.

Regarding `Clc1cccc(-c2cnn3c(NCc4nc5ccccc5[nH]4)nc(N4CCOCC4)nc23)c1` [Example 107, N-[(1H-benzimidazol-2-yl)methyl]-8-(3-chlorophenyl)-2-(morpholin-4-yl)pyrazolo[1,5-a][1,3,5]triazin-4-amine], the IC50 is above 20 µM.

For the molecule `CC(C)c1cnn2c(NCc3nc4ccccc4[nH]3)nc(N3CCOC[C@H]3C)nc12` [Example 7, N-[(1H-benzimidazol-2-yl)methyl]-2-[(3R)-3-methylmorpholin-4-yl]-8-(propan-2-yl)pyrazolo[1,5-a][1,3,5]triazin-4-amine], the IC50 amounted to 6.57 µM.

Turning to `COc1ccc2[nH]c(CNc3nc(N4C[C@@H](C)O[C@@H](C)C4)nc4c(Br)cnn34)nc2c1` [Example 124, 8-bromo-2-[(2R, 6S)-2,6-dimethylmorpholin-4-yl]-N-[(5-methoxy-1H-benzimidazol-2-yl)methyl]pyrazolo[1,5-a][1,3,5]triazin-4-amine], the IC50 came to 8.97 µM.

With `CC(=O)NCCCc1cccc2[nH]c(CNc3nc(N4CCOCC4)nc4c(Br)cnn34)nc12.O=CO` [Example 115, formic acid-N-{3-[2-({[8-bromo-2-(morpholin-4-yl)pyrazolo[1,5-a][1,3,5]triazin-4-yl]amino}methyl)-1H-benzimidazol-4-yl]propyl}acetamide (1/1)], the IC50 stood at 10.7 µM.

As to `CCC1COCCN1c1nc(NCc2nc3ccccc3[nH]2)n2ncc(Br)c2n1` (stereo not shown) [Example 116, N-(1H-benzimidazol-2-ylmethyl)-8-bromo-2-(3-ethylmorpholin-4-yl)pyrazolo[1,5-a][1,3,5]triazin-4-amine], the IC50 worked out at 3.01 µM.

For the molecule `c1ccc2[nH]c(CNc3nc(N4CCOCC4)nc4c(-c5ccncc5)cnn34)nc2c1` [Example 111, N-[(1H-benzimidazol-2-yl)methyl]-2-(morpholin-4-yl)-8-(pyridin-4-yl)pyrazolo[1,5-a][1,3,5]triazin-4-amine hydrogen chloride (1/1)], the IC50 is above 20 µM.

On to `Fc1ccc2[nH]c(CNc3nc(N4CCOCC4)nc4c(Br)cnn34)nc2c1` [Example 101, 8-bromo-N-[(5-fluoro-1H-benzimidazol-2-yl)methyl]-2-(morpholin-4-yl)pyrazolo[1,5-a][1,3,5]triazin-4-amine], for which the IC50 stood at 3.88 µM.

For `CC1(C)CN(c2nc(NCc3nnc(-c4ccccc4)[nH]3)n3ncc(C4CC4)c3n2)CCO1` [Example 94, 8-cyclopropyl-2-(2,2-dimethylmorpholin-4-yl)-N-[(5-phenyl-4H-1,2,4-triazol-3-yl)methyl]pyrazolo[1,5-a][1,3,5]triazin-4-amine], the IC50 is above 20 µM.

As to `Brc1cnn2c(NCc3nc4ccccc4[nH]3)nc(N3C[C@H]4C[C@@H]3CO4)nc12` [Example 102, N-[(1H-benzimidazol-2-yl)methyl]-8-bromo-2-[(1R,4R)-2-oxa-5-azabicyclo[2.2.1]heptan-5-yl]pyrazolo[1,5-a][1,3,5]triazin-4-amine], the IC50 was 2.42 µM.

In the case of `Brc1cnn2c(NCc3nnc(-c4ccccc4)[nH]3)nc(N3C[C@@H]4C[C@H]3CO4)nc12` [Example 120, 8-bromo-2-[(1S,4S)-2-oxa-5-azabicyclo[2.2.1]heptan-5-yl]-N-[(5-phenyl-4H-1,2,4-triazol-3-yl)methyl]pyrazolo[1,5-a][1,3,5]triazin-4-amine], the IC50 stood at 15.4 µM.

Take `Fc1ccc(-c2cnn3c(NCc4nc5ccccc5[nH]4)nc(N4CCOCC4)nc23)cc1` [Example 106, N-[(1H-benzimidazol-2-yl)methyl]-8-(4-fluorophenyl)-2-(morpholin-4-yl)pyrazolo[1,5-a][1,3,5]triazin-4-amine]: the IC50 was above 20 µM.

Take `Brc1cnn2c(NCc3nnc(-c4ccccc4)[nH]3)nc(N3CCNCC3)nc12.O=CO` [Example 119, 8-bromo-N-[(5-phenyl-4H-1,2,4-triazol-3-yl)methyl]-2-piperazin-1-yl-pyrazolo[1,5-a][1,3,5]triazin-4-amine formate]: the IC50 stood at 7.77 µM.

With `c1cncc(-c2cnn3c(NCc4nc5ccccc5[nH]4)nc(N4CCOCC4)nc23)c1` [Example 108, N-[(1H-benzimidazol-2-yl)methyl]-2-(morpholin-4-yl)-8-(pyridin-3-yl)pyrazolo[1,5-a][1,3,5]triazin-4-amine], the IC50 was above 20 µM.
